According to article PMC7284870, “Antimicrobial Peptides from Rat-Tailed Maggots of the Drone Fly Eristalis tenax Show Potent Activity against Multidrug-Resistant Gram-Negative Bacteria” (Microorganisms, 2020):
Like-named read-outs stand apart in the source and are kept apart here.

Columns and labels:
[1] = tested on: Enterobacter cloacae clinical isolates (23); assay: MIC, clinical isolates; assay type: cell-based
Procedure: (§1) The strains that were used in this study (Table 2 and Table S1) were cultivated at 37 °C in cation-adjusted Mueller–Hinton broth (CAMB) in Erlenmeyer flasks, or on the same medium with agar in Petri dishes. Exceptionally, Mycobacterium smegmatis was cultivated at 37 °C in brain heart infusion (BHI) medium that was supplemented with 1% Tween-80 in Erlenmeyer flasks, or on the same medium lacking detergent but with agar in Petri dishes. Strains listed with Robert Koch Institute (RKI) strain numbers are clinical isolates from the RKI strain collection originating from hospitalized patients in Germany. The remaining strains originated from the Sanofi strain collection and they were originally purchased from the American Type Culture Collection or the German Collection of Microorganisms and Cell Cultures. Meropenem/colistin-resistant strains were maintained, as described above, with the appropriate antibiotic added at levels below the minimal inhibitory concentration (MIC).
(§2) The MIC values were determined in 384-well microtiter plates with an assay volume of 20 µL. Immediately before each assay, the cultures of test organisms (bacteria grown for 18 h, Candida albicans and M. smegmatis grown for 48 h) were diluted with the appropriate medium to a density of 1 × 10^6 cells/mL (C. albicans), 1 × 10^5 cells/mL (M. smegmatis) or 5 × 10^5 cells per mL (other species). […] We transferred 2-µL aliquots from this dilution series to new 384-well microtiter plates while using a CyBio-Well 384-channel automated pipettor (Analytic Jena, Jena, Germany) and added 18 µL of the diluted suspension of each test species using a Viafill reagent dispenser (Integra), thus reducing the final peptide concentration 10-fold to the range 1024–0.03125 µg/mL. […] The growth of M. smegmatis was measured using the BacTiter-Glo luminescence test system (Promega, Madison, WI, USA). The growth of the other species was determined by visual inspection of the microtiter plate and turbidimetry based on the optical density at 600 nm (OD600). The MIC was defined as the peptide concentration at which no bacterial growth was observed. We supplemented the test medium with either 150 mM NaCl or 1.25 mM CaCl2 to represent monovalent and divalent cations to simulate physiological conditions.

[2] = tested on: Escherichia coli clinical isolates (26); assay: MIC, clinical isolates; assay type: cell-based
Procedure: as §1, §2

[3] = tested on: Klebsiella oxytoca clinical isolates (2); assay: MIC, clinical isolates; assay type: cell-based; conditions: Table S1, RKI 609/16
Procedure: as §1, §2

[4] = tested on: Klebsiella pneumoniae clinical isolates (21); assay: MIC, clinical isolates; assay type: cell-based
Procedure: as §1, §2

[5] = tested on: Morganella morganii clinical isolates (4); assay: MIC, clinical isolates; assay type: cell-based
Procedure: as §1, §2

[6] = tested on: Salmonella enterica clinical isolates (10); assay: MIC, clinical isolates; assay type: cell-based
Procedure: as §1, §2

[7] = tested on: E. coli ATCC25922; assay: Checkerboard assay EtDip with colistin; assay type: cell-based, Escherichia coli; conditions: CAMB, + 150 mM NaCl, + 1.25 mM CaCl2; FICindex ≤0.5 = synergy
Procedure: (§3) The interactions between pairs of compounds were analyzed using checkerboard assays in a 384-well microtiter plate with an assay volume of 20 µL. Immediately before the test runs, the bacterial cultures were diluted in CAMB to a density of 5 × 10^5 cells/mL. The two compounds for combinatorial testing were arrayed as 10-fold concentrated serial dilutions with respect to the final concentration, vertically for one compound and horizontally for the other, in the same 384-well microplate. Subsequently, we transferred 2-µL aliquots to new 384-well microtiter plates, and growth inhibition in each well was determined, as described for the MIC values above. Fractional inhibitory concentration (FIC) and FICindex values for each combination were calculated using the following formulae, where a
(§4) FICindex ≤0.5 indicates synergy and a FICindex >4 indicates antagonism.
(§5) FIC for compound A = MIC of compound A in combination/MIC of compound A
(§6) FIC for compound B = MIC of compound B in combination/MIC of compound B

[8] = tested on: A. baumannii ATCC19606; assay: Checkerboard assay EtDip with colistin; assay type: cell-based, Acinetobacter baumannii; conditions: CAMB, + 150 mM NaCl, + 1.25 mM CaCl2; FICindex ≤0.5 = synergy
Procedure: as §3, §4, §5, §6

[9] = tested on: reference strains; assay: MIC, several reference strains; assay type: cell-based; conditions: reference strains of Table 2
Procedure: as §1
The MIC values were determined in 384-well microtiter plates with an assay volume of 20 µL. […] The growth of M. smegmatis was measured using the BacTiter-Glo luminescence test system (Promega, Madison, WI, USA). The growth of the other species was determined by visual inspection of the microtiter plate and turbidimetry based on the optical density at 600 nm (OD600). […]

C[C@@H](O)[C@H]1C(=O)N2C(C(=O)O)=C(S[C@@H]3CN[C@H](C(=O)N(C)C)C3)[C@H](C)[C@H]12 [MEM, meropenem]
> 64 µg/mL: MIC ([1]; Table S1, RKI 136/15) | MIC ([2]; Table S1, RKI 75/15) | MIC ([4]; Table S1, RKI 164/16) | MIC ([4]; Table S1, RKI 544/13) | MIC ([5]; Table S1, RKI 599/16)
≤ 0.5 µg/mL: MIC ([1]; Table S1, RKI 37/14) | MIC ([1]; Table S1, RKI 76/15) | MIC ([1]; Table S1, RKI 210/15) | MIC ([1]; Table S1, RKI 215/15) | MIC ([1]; Table S1, RKI 243/15) | MIC ([1]; Table S1, RKI 361/13) | MIC ([1]; Table S1, RKI 546/13) | MIC ([1]; Table S1, RKI 571/13) | MIC ([1]; Table S1, RKI 766/15) | MIC ([2]; Table S1, RKI 95/15) | MIC ([2]; Table S1, RKI 97/15) | MIC ([2]; Table S1, RKI 314/16) | MIC ([2]; Table S1, RKI 317/16) | MIC ([2]; Table S1, RKI 330/16) | MIC ([2]; Table S1, RKI 462/16) | MIC ([2]; Table S1, RKI 513/16) | MIC ([2]; Table S1, RKI 514/16) | MIC ([2]; Table S1, RKI 515/16) | MIC ([2]; Table S1, RKI 521/16) | MIC ([2]; Table S1, RKI 524/16) | MIC ([2]; Table S1, RKI 525/16) | MIC ([2]; Table S1, RKI 581/16) | MIC ([2]; Table S1, RKI 582/16) | MIC ([2]; Table S1, RKI 583/16) | MIC ([2]; Table S1, RKI 590/16) | MIC ([2]; Table S1, RKI 592/16) | MIC ([2]; Table S1, RKI 593/16) | MIC ([2]; Table S1, RKI 602/16) | MIC ([2]; Table S1, RKI 1023/14) | MIC ([4]; Klebsiella pneumoniae, Table S1, RKI 600/16, read-out: MIC) | MIC ([4]; Table S1, RKI 19/16) | MIC ([4]; Table S1, RKI 80/15) | MIC ([4]; Table S1, RKI 94/15) | MIC ([4]; Table S1, RKI 95/16) | MIC ([4]; Table S1, RKI 138/16) | MIC ([4]; Table S1, RKI 320/16) | MIC ([4]; Table S1, RKI 373/16-1) | MIC ([4]; Table S1, RKI 393/16) | MIC ([4]; Table S1, RKI 461/16) | MIC ([4]; Table S1, RKI 577/15) | MIC ([5]; Table S1, RKI 81/15) | MIC ([5]; Table S1, RKI 93/15) | MIC ([5]; Table S1, RKI 659/13) | MIC ([6]; Table S1, RKI 205/14) | MIC ([6]; Table S1, RKI 206/14) | MIC ([6]; Table S1, RKI 270/14) | MIC ([6]; Table S1, RKI 277/14) | MIC ([6]; Table S1, RKI 419/14) | MIC ([6]; Table S1, RKI 436/14) | MIC ([6]; Table S1, RKI 437/14) | MIC ([6]; Table S1, RKI 532/14-1) | MIC ([6]; Table S1, RKI 533/14) | MIC ([6]; Table S1, RKI 583/14)
4 µg/mL: MIC ([1]; Table S1, RKI 5/14) | MIC ([2]; Table S1, RKI 443/16)
16 µg/mL: MIC ([1]; Table S1, RKI 466/13) | MIC ([1]; Table S1, RKI 506/15) | MIC [3] | MIC ([4]; Table S1, RKI 229/15)
64 µg/mL: MIC ([1]; Table S1, RKI 287/13) | MIC ([1]; Table S1, RKI 460/16) | MIC ([1]; Table S1, RKI 733/14) | MIC ([4]; Table S1, RKI 328/16)
2 µg/mL: MIC ([1]; Table S1, RKI 113/16) | MIC ([1]; Table S1, RKI 141/15)
32 µg/mL: MIC ([1]; Table S1, RKI 34/16) | MIC ([4]; Table S1, RKI 503/15) | MIC ([4]; Table S1, RKI 908/15)
8 µg/mL: MIC ([1]; Table S1, RKI 33/16) | MIC ([1]; Table S1, RKI 308/13) | MIC ([2]; Table S1, RKI 607/16) | MIC ([2]; Table S1, RKI 867/14)
1 µg/mL: MIC ([1]; Table S1, RKI 348/15) | MIC ([4]; Table S1, RKI 107/15)

QFNMQGGGSPRQGFDVNANARFPIWQSQNARNSVHGTASYAQHLGGPYGNSRPNFGGGLQFT [EtDip, diptericin-like peptide of Eristalis tenax]
Synergistic interactions: interaction with colistin (FICindex) [7] | interaction with colistin (FICindex) [8]
no activity: activity against the test strains [9]
